Measurements: patent US20050038118A1, “Treatment” (priority 2003, published 2005)

Tests used:
human Rhinovirus (HRV) [1] = test: In vivo Study II: human volunteers pre-treated with CLA, intranasal human Rhinovirus challenge, Jackson Score
Description: The following protocol was used in all of Examples 4 to 10.
76 human volunteers suffering from the common cold were used in the study. 43 subjects were administered conjugated linoleic acid (CLA) and the other 33 subjects were given a placebo. The CLA used contained a 40:60 mixture of cis9, trans11: trans10, cis12 isomers.
The 43 subjects underwent pre-treatment with CLA at a level of 2 g/day for 4 weeks. 33 subjects underwent pre-treatment with placebo (HOSF; high oleic sunflower […]).
(§1) All subjects were inoculated at day 0 by intranasal exposure to human Rhinovirus (HRV) and the two groups were monitored daily for the next 5 days. The effects of the two types of treatment were determined by using the Jackson Score (validated in severity of symptoms) and the effects of the symptoms on its own on day 0-5.
Symptoms were assessed using a Jackson Score validated in severity from 0=absent to 3=very severe.

human Rhinovirus (HRV) [2] = test: In vivo study: human volunteers pre-treated with CLA, intranasal human Rhinovirus challenge, Jackson Score; settings: CLA 1.7 g/day for 4 weeks pre-treatment
Description: 45 human volunteers suffering from the common cold were used in the study. 21 subjects were administered conjugated linoleic acid (CLA) and the other 24 subjects were given a placebo.
The 21 subjects underwent pre-treatment with CLA at a level of 1.7 g/day for 4 weeks. 24 subjects underwent pre-treatment with placebo (HOSF; high oleic sunflower […]).
as §1
Symptoms were assessed using a Jackson Score validated in severity from 0=absent to 3=very severe. The following symptoms were rated:
The primary endpoint for the study was the frequency of clinical colds defined in accordance with the modified Jackson criteria.
Total symptoms of the individuals were checked in the morning (am) and in the afternoon (pm). The results of the test in the afternoon are shown in FIG. 2 and the results of the test in the morning are shown in FIG. 3; both plots are of Total Symptom Score against number of days. In FIGS. 2 and 3, results for the group of people treated with CLA are shown on the left in grey (Series 1) and for people given the placebo are shown on the right in dark grey (Series 2).
The symptoms assessed were sneezing, runny nose, obstruction, stuffiness, sore throat, cough, headache, malaise and chilliness. The total symptom score was determined by adding the scores for the symptoms during the 5 day period. FIG. 4 is a graph showing total symptom score and individual symptoms for the CLA group (light grey bars) and the placebo group (dark grey bars).

[3] = CLA 2 g/day for 4 weeks pre-treatment

## conjugated linoleic acid [CLA]
Human Rhinovirus (HRV) [1]; [3]
  reduction in Jackson cold severity versus placebo: about 12%
  reduction in total Jackson score over 5 days versus placebo: about 7%
Human Rhinovirus (HRV) [1]; CLA 2 g/day for 4 weeks pre-treatment, AM and PM, five days post inoculation, placebo 9.30
  average total Jackson score over 5 days: 8.72
Human Rhinovirus (HRV) [1]; CLA 2 g/day for 4 weeks pre-treatment, ranking 1-3, AM and PM, five days, placebo 2.14
  total runny nose score in 5 days: 2.025
Human Rhinovirus (HRV) [1]; CLA 2 g/day for 4 weeks pre-treatment, ranking 1 to 3, AM and PM, five days, placebo 1.2
  total sneezing score in 5 days: 0.5
Human Rhinovirus (HRV) [1]; CLA 2 g/day for 4 weeks pre-treatment, ranking 1 to 3, AM and PM, five days, placebo 3.1
  total sore throat score for 5 days: 2.5
Human Rhinovirus (HRV) [1]; CLA 2 g/day for 4 weeks pre-treatment, sum of symptom scores during 5 day period, placebo 12.1
  total symptom score over 5 days: 11.3
Human Rhinovirus (HRV) [1]; CLA 2 g/day for 4 weeks pre-treatment, total score (from 10), AM and PM, five days post inoculation, placebo 1.09
  Jackson cold severity, average score: 0.975
Human Rhinovirus (HRV) [1]; CLA (40:60 cis9,trans11:trans10,cis12) 2 g/day for 4 weeks pre-treatment, all placebo volunteers infected
  volunteers not infected: Seven out of the 43
Human Rhinovirus (HRV) [2]; at day 2 after HRV inoculation, FIG. 1
  severity of the common cold (Jackson Score) versus placebo: lower
Human Rhinovirus (HRV) [2]; day 2 until the end of the study, FIGS. 2 and 3
  total symptom score (am and pm) versus placebo: lower
Human Rhinovirus (HRV) [2]; scores added over 5 day period, FIG. 4
  severity of the symptoms assessed separately versus placebo: very clearly lower
